Measurements: publication PMC7865522, “Analyzing Kinase Similarity in Small Molecule and Protein Structural Space to Explore the Limits of Multi-Target Screening” (Molecules, 2021)

Tests used:
ErbB2 [1] = molecular target: T1, ErbB2 (Homo sapiens, UniProt P04626); experiment: DiscoverX KINOMEscan competition binding assay; settings: compound 10 µM; lower values = higher affinity; below 35% = significant binding
T1 construct: purchased DiscoverX (KINOMEscan service); host or cells: E. coli BL21-derived host (T7 phage) or HEK-293
Procedure, shortened: (§1)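 Single-point test at 10 µM against DNA-tagged kinase (phage or HEK-293 source) binding to an immobilized reference ligand. Remaining bead-bound kinase quantified by qPCR as % of control.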

LCK = molecular target: T2, LCK (Homo sapiens, UniProt P06239); experiment: DiscoverX KINOMEscan competition binding assay; settings: compound 10 µM; lower values = higher affinity; below 35% = significant binding
T2 construct: purchased DiscoverX (KINOMEscan service); host or cells: E. coli BL21-derived host (T7 phage) or HEK-293
Procedure, shortened: as §1

BRAF [2] = molecular target: T3, BRAF (Homo sapiens, UniProt P15056); experiment: DiscoverX KINOMEscan competition binding assay; settings: compound 10 µM; lower values = higher affinity; below 35% = significant binding
T3 construct: purchased DiscoverX (KINOMEscan service); host or cells: E. coli BL21-derived host (T7 phage) or HEK-293
Procedure, shortened: as §1

MET = molecular target: T4, MET (Homo sapiens, UniProt P08581); experiment: DiscoverX KINOMEscan competition binding assay; settings: compound 10 µM; lower values = higher affinity; below 35% = significant binding
T4 construct: purchased DiscoverX (KINOMEscan service); host or cells: E. coli BL21-derived host (T7 phage) or HEK-293
Procedure, shortened: as §1

CDK2 = molecular target: T5, CDK2 (Homo sapiens, UniProt P24941); experiment: DiscoverX KINOMEscan competition binding assay; settings: compound 10 µM; lower values = higher affinity; below 35% = significant binding
T5 construct: purchased DiscoverX (KINOMEscan service); host or cells: E. coli BL21-derived host (T7 phage) or HEK-293
Procedure, shortened: as §1

EGFR [3] = molecular target: T6, EGFR (Homo sapiens, UniProt P00533); experiment: DiscoverX KINOMEscan competition binding assay; settings: compound 10 µM; lower values = higher affinity; below 35% = significant binding
T6 construct: purchased DiscoverX (KINOMEscan service); host or cells: E. coli BL21-derived host (T7 phage) or HEK-293
Procedure, shortened: as §1

p38α = molecular target: T7, p38α (Homo sapiens, UniProt Q16539); experiment: DiscoverX KINOMEscan competition binding assay; settings: compound 10 µM; lower values = higher affinity; below 35% = significant binding
T7 construct: purchased DiscoverX (KINOMEscan service); host or cells: E. coli BL21-derived host (T7 phage) or HEK-293
Procedure, shortened: as §1

VEGFR2 = molecular target: T8, VEGFR2 (Homo sapiens, UniProt P35968); experiment: DiscoverX KINOMEscan competition binding assay; settings: compound 10 µM; lower values = higher affinity; below 35% = significant binding
T8 construct: purchased DiscoverX (KINOMEscan service); host or cells: E. coli BL21-derived host (T7 phage) or HEK-293
Procedure, shortened: as §1

ErbB2 [4] = molecular target: T1, ErbB2; experiment: Eurofins in vitro kinase inhibition assay; type: biochemical; settings: compound 20 µM; mean (SD); above 50% significant, 25-50% weak
Procedure, shortened: (§2)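 Read-out is percent inhibition of control activity, given as mean (SD), with each compound tested at 20 µM. EGFR, ErbB2 and BRAF phosphorylation of a substrate analog was measured in the presence of ATP, while PI3K product PIP3 was quantified by HTRF competition with biotinylated PIP3.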

BRAF [5] = molecular target: T3, BRAF; experiment: Eurofins in vitro kinase inhibition assay; type: biochemical; settings: compound 20 µM; mean (SD); above 50% significant, 25-50% weak
Procedure, shortened: as §2

EGFR [6] = molecular target: T6, EGFR; experiment: Eurofins in vitro kinase inhibition assay; type: biochemical; settings: compound 20 µM; mean (SD); above 50% significant, 25-50% weak
Procedure, shortened: as §2

PI3K [7] = molecular target: T9, PI3K (Homo sapiens, UniProt P42336); experiment: DiscoverX KINOMEscan competition binding assay; parameters: purchased DiscoverX (KINOMEscan service); host or cells: E. coli BL21-derived host (T7 phage) or HEK-293; settings: compound 10 µM; lower values = higher affinity; below 35% = significant binding
Procedure, shortened: as §1

PI3K [8] = molecular target: T9, PI3K; experiment: Eurofins in vitro kinase inhibition assay (HTRF, PIP3 displacement); type: biochemical; parameters: purchased Eurofins Cerep (contract assay); settings: compound 20 µM; mean (SD); above 50% significant, 25-50% weak
Procedure, shortened: as §2

panel of 290 kinases = test system: panel of 290 kinases; parameters: method as in PMID 18183025; settings: cited from earlier work

T3 sequence (P15056 whole entry): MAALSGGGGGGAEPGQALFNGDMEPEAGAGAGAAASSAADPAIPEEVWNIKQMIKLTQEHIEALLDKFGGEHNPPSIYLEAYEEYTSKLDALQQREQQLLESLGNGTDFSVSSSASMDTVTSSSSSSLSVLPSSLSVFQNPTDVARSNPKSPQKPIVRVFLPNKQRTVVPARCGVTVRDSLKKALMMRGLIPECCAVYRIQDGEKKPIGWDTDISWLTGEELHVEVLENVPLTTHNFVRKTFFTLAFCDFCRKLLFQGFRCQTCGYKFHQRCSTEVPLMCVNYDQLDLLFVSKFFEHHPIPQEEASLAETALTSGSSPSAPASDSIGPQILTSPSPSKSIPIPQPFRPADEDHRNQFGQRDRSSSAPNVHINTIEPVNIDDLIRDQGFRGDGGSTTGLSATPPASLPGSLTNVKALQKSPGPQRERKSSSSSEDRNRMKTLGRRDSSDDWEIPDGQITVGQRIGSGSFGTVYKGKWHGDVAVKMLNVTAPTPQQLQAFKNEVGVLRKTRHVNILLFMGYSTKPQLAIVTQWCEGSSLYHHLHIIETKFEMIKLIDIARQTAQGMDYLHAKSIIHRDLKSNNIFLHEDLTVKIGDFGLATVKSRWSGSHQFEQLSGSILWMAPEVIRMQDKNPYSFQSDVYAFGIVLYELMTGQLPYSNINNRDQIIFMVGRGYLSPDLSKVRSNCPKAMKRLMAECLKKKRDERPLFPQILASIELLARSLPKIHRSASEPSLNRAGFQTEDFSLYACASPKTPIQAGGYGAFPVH
T2 sequence (P06239 whole entry): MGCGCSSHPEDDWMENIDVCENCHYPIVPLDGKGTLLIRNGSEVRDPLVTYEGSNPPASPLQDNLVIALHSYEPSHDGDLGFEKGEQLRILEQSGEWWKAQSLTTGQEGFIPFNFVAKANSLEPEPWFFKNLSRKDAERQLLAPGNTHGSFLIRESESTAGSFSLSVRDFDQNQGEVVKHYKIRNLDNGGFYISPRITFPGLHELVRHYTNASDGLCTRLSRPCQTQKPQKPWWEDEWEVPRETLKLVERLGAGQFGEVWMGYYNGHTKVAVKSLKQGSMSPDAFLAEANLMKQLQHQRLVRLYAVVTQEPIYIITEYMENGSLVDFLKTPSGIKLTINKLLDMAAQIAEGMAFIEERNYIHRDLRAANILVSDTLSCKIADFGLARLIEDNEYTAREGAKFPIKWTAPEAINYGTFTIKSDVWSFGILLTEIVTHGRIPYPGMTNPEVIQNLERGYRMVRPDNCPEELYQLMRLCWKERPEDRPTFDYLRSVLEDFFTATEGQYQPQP
T1 sequence (P04626 23-1255): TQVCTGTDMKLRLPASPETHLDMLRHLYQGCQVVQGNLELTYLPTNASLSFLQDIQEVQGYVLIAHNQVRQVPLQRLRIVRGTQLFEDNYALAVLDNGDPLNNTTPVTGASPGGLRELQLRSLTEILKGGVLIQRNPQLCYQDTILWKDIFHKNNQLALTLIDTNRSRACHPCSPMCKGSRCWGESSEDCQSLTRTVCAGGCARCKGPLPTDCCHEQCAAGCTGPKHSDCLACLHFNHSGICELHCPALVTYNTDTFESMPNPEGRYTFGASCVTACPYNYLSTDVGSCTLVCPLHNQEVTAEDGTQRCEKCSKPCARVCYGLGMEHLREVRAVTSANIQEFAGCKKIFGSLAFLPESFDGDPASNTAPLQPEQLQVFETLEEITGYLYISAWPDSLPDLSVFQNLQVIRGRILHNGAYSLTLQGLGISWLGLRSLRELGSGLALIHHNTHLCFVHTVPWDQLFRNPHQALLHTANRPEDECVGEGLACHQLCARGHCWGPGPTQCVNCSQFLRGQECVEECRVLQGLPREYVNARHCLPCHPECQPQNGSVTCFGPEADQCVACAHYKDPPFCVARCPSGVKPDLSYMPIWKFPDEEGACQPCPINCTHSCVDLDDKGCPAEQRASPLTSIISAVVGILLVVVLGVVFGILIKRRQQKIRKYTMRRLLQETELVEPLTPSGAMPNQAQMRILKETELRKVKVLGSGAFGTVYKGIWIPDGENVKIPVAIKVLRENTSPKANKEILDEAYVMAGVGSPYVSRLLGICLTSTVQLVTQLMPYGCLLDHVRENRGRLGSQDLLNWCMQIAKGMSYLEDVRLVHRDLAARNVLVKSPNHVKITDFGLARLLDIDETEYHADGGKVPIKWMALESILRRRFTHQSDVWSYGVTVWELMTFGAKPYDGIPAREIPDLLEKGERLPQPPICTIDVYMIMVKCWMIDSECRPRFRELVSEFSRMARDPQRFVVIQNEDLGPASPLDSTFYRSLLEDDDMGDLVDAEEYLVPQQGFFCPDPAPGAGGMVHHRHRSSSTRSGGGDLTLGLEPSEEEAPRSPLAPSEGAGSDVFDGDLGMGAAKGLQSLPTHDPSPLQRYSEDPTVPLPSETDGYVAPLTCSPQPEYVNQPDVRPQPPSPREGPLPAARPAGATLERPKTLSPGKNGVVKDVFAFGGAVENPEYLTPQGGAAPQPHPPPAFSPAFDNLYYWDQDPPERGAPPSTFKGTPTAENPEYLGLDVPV
T7 sequence (Q16539 whole entry): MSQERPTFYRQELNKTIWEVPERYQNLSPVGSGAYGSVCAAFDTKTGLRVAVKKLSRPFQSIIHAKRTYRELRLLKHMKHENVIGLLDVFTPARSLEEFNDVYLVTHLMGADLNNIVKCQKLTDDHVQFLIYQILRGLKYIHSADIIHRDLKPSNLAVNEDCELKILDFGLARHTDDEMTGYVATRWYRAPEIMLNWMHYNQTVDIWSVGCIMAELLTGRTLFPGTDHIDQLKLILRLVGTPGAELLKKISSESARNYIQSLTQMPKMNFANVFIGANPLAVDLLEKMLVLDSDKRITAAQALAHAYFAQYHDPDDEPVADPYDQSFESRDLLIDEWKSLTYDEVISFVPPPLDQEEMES
T4 sequence (P08581 25-1390): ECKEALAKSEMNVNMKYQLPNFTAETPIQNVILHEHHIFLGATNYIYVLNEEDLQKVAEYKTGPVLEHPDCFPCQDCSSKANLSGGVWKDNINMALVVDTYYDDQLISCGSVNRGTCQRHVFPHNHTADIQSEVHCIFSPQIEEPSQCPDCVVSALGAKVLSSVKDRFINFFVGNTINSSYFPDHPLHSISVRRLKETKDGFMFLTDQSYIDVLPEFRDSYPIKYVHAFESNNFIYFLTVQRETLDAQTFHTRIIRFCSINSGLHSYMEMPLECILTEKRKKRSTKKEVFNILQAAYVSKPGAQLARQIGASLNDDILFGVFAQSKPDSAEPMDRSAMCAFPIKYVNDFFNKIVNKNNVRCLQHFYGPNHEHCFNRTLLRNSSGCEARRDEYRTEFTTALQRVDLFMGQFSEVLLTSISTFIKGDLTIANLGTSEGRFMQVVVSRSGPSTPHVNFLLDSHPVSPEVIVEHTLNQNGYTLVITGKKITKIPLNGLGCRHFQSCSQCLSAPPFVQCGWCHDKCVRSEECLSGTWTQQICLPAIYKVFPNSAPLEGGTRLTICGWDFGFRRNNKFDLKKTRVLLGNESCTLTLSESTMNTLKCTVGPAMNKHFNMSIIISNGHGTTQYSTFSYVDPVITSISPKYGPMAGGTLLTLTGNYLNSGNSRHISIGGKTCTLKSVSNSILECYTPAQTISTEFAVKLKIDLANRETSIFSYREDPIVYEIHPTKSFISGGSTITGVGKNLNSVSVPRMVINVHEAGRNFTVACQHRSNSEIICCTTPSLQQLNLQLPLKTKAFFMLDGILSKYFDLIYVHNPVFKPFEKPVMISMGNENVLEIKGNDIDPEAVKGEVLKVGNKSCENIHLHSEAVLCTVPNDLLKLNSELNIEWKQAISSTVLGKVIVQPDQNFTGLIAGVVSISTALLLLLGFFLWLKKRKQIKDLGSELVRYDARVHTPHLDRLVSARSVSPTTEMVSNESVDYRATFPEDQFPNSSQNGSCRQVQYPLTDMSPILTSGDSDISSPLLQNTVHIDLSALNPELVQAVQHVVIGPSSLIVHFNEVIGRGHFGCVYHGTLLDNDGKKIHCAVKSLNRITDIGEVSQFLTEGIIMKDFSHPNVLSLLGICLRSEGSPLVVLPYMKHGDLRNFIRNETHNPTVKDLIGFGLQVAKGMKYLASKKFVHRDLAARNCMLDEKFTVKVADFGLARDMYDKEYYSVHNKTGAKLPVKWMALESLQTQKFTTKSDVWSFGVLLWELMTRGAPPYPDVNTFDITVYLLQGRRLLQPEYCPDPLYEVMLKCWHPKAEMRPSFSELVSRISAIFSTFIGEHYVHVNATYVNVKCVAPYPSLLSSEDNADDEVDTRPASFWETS

Row | SMILES | % control, ErbB2 (DiscoverX) (ErbB2 [1]) | % control, LCK (DiscoverX) (LCK) | % control, BRAF (DiscoverX) (BRAF [2]) | % control, MET (DiscoverX) (MET) | % control, CDK2 (DiscoverX) (CDK2) | % control, EGFR (DiscoverX) (EGFR [3]) | % control, p38α (DiscoverX) (p38α) | % control, VEGFR2 (DiscoverX) (VEGFR2) | % inhibition of control activity, ErbB2 (Eurofins) (ErbB2 [4]) | % inhibition of control activity, BRAF (Eurofins) (BRAF [5]) | % inhibition of control activity, EGFR (Eurofins) (EGFR [6]) | % control, PI3K (DiscoverX) (PI3K [7]) | % inhibition of control activity, PI3K (Eurofins) (PI3K [8]) | fraction of kinases bound in a panel (panel of 290 kinases; panel of 290 kinases) | kinase binding spectrum (panel of 290 kinases; TKs)
1 | CCOCCCNC(=O)c1nc2c3c4c(sc3ncn2n1)CC[C@@H](C)C4 [DS82066] | 90 % control | 100 % control | 83 % control | 100 % control | 100 % control | 92 % control | 93 % control | 100 % control | -1.4 (0.8) % inhibition | -18.5 (1.8) % inhibition | 12.6 (1.9) % inhibition | 89 % control | 3.6 (2.3) % inhibition |  | 
2 | CC(=O)c1cc(CC(=O)N(C)C[C@H]2CCCCO2)cs1 [DS84326] | 97 % control | 100 % control | 100 % control | 95 % control | 100 % control | 100 % control | 90 % control | 100 % control | 0.2 (2.8) % inhibition | -8.2 (13.6) % inhibition | 23.4 (0.6) % inhibition | 100 % control | 0.7 (0.8) % inhibition |  | 
3 | CC(C)n1ccc(=O)nc1SC1CCN(c2ccccc2F)C1=O (centres unmarked) [DS99367] | 100 % control | 100 % control | 100 % control | 87 % control | 100 % control | 93 % control | 91 % control | 100 % control | -3.3 (0.5) % inhibition | -19.6 (11.8) % inhibition | 17.3 (0.1) % inhibition | 100 % control | 1.4 (0.1) % inhibition |  | 
4 | CCN(CC)CCNC(=O)c1c(C)[nH]c(/C=C2\C(=O)Nc3ccc(F)cc32)c1C [Sunitinib] |  |  |  |  |  |  |  |  |  |  |  |  |  | more than 50% | 
5 | Cc1nc(Nc2ncc(C(=O)Nc3c(C)cccc3Cl)s2)cc(N2CCN(CCO)CC2)n1 [dasatinib] |  |  |  |  |  |  |  |  |  |  |  |  |  |  | binds to a broad spectrum of TKs with high affinity
